Laboratory results: patent US10682371B2, “Small molecule conjugates specifically activated in tumor microenvironment for targeting and use thereof” (priority 2014, dated 2020)
Read-outs that look alike come from different tables or passages of the source.

Tests used:
[1] = tested on: D121 lung tumor cells; format: in vivo, C57 mice; settings: for Effect together with PDL1-antibody in promoting immunization and treatment, in words: combination with PDL1-antibody; for Treatment effects on C57 mice, in words: compared to the control group and the other treatment groups
Outline: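 Endpoint is tumor inhibition rate from tumor size (mm^3) after weekly drug treatment for 4 weeks, begun once s.c. tumors from 10^6 live D121 cells reached 0.3-0.4 cm. Before challenge, C57 mice received three i.p. doses of 5×10^5 irradiated D121 cells, two weeks apart, or saline.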

[2] = tested on: Human pancreatic cancer Panc-1 tumor tissue homogenate; format: biochemical; settings: for Activation ratio (%) in homogenates from different tumor tissues: Human pancreatic cancer Panc-1
Outline: (§1)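 Protease-driven activation measured in acidized (pH 6.0) tissue homogenates, 100 μg. Incubation at 37°C with compound at 1 mg/ml.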

[3] = tested on: Human liver cancer Hepg2 tumor tissue homogenate; format: biochemical; settings: for Activation ratio (%) in homogenates from different tumor tissues: Human liver cancer Hepg2
Outline: as §1

[4] = tested on: Human chronic leukemia K562 tumor tissue homogenate; format: biochemical; settings: for Activation ratio (%) in homogenates from different tumor tissues: Human chronic leukemia K562
Outline: as §1

[5] = tested on: Human prostate cancer PC-3 tumor tissue homogenate; format: biochemical; settings: for Activation ratio (%) in homogenates from different tumor tissues: Human prostate cancer PC-3
Outline: as §1

[6] = tested on: Human colon cancer HT-29 tumor tissue homogenate; format: biochemical; settings: for Activation ratio (%) in homogenates from different tumor tissues: Human colon cancer HT-29
Outline: as §1

[7] = tested on: Human ovarian cancer SK-OV-3 tumor tissue homogenate; format: biochemical; settings: for Activation ratio (%) in homogenates from different tumor tissues: Human ovarian cancer SK-OV-3
Outline: as §1

[8] = tested on: Human renal cancer OS-RC-2 tumor tissue homogenate; format: biochemical; settings: for Activation ratio (%) in homogenates from different tumor tissues: Human renal cancer OS-RC-2
Outline: as §1

[9] = tested on: Human non-small cell lung cancer A549 tumor tissue homogenate; format: biochemical; settings: for Activation ratio (%) in homogenates from different tumor tissues: Human non-small cell lung cancer A549
Outline: as §1

[10] = tested on: Human breast cancer MDA-MB435 tumor tissue homogenate; format: biochemical; settings: for Activation ratio (%) in homogenates from different tumor tissues: Human breast cancer MDA-MB435
Outline: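 For protease-mediated activation, 100 μg of MDA-MB435 breast cancer tumor homogenate, acidified to pH6.0, received compound at 1 mg/ml at 37° C.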

[11] = tested on: tumor CD8+ T cells; format: in vivo, C57 mice
Outline: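 Flow cytometric ratio of CD8⁺ to CD45⁺ cells in dissociated tumour. Cell suspensions were labelled with CD45-PE and CD8-FITC for 1 h at room temperature, then washed twice in phosphate buffer with 1% fetal bovine serum.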

[12] = Table 49, immunized C57 mice, D121, drugs 13.2 μmol/kg, PDL1 antibody 5 μg/kg, weekly for 4 weeks, Day 18
[13] = Table 45, 1 mg/ml, acidized homogenate, Docetaxel release by HPLC
[14] = Day 18, immunized C57 mice, drugs 13.2 μmol/kg, PDL1 antibody 5 μg/kg, weekly for 4 weeks
[15] = D121 immunized C57 mice, drugs weekly for 4 weeks, Day 18 (Example 23)
[16] = 100 μg acidized homogenate pH6.0, 1 mg/ml, 37°
[17] = D121 immunized C57 mice (Example 23), CD8 positive cells in CD45 positive cells of tumor

## COCCOCC(=O)N[C@H](C)C(=O)N[C@H](C)C(=O)N[C@H](CC(N)=O)C(=O)Nc1ccc(COC(=O)OC(C(=O)OC2C[C@@]3(O)[C@@H](OC(=O)c4ccccc4)[C@H]4[C@](C)(C(=O)[C@H](O)C(=C2C)C3(C)C)[C@@H](O)CC2OC[C@]24OC(C)=O)[C@@H](NC(=O)OC(C)(C)C)c2ccccc2)cc1 (stereo partly drawn) [Compound D1, 2-(2-methoxyethoxy) acetyl-L-Ala-L-Ala-L-Asn-4-amino benzyl-Docetaxel]
[1]; [12]
  Size of tumor (mm^3) Day 18: 324.45 mm^3
  inhibitory rate on tumor % Day 18: 77.2%
[1]
  Effect together with PDL1-antibody in promoting immunization and treatment, in words: excellent synergistic effect
  Treatment effects on C57 mice, in words: greatly improved
[2]; [13]
  Activation ratio (%) in homogenates from different tumor tissues: 85.32%
[3]; [13]
  Activation ratio (%) in homogenates from different tumor tissues: 85.77%
[4]; [13]
  Activation ratio (%) in homogenates from different tumor tissues: 68.23%
[5]; [13]
  Activation ratio (%) in homogenates from different tumor tissues: 87.57%
[6]; [13]
  Activation ratio (%) in homogenates from different tumor tissues: 71.46%
[7]; [13]
  Activation ratio (%) in homogenates from different tumor tissues: 79.56%
[8]; [13]
  Activation ratio (%) in homogenates from different tumor tissues: 77.76%
[9]; [13]
  Activation ratio (%) in homogenates from different tumor tissues: 77.76%
[10]; [13]
  Activation ratio (%) in homogenates from different tumor tissues: 83.07%
[11]; Table 49, CD8 positive cells in CD45 positive cells of tumor, flow cytometry, drugs 13.2 μmol/kg, PDL1 antibody 5 μg/kg
  CD8: CD45 (%): 18.5%

## COCCOCC(=O)N[C@H](C)C(=O)N[C@H](C)C(=O)N[C@H](CC(N)=O)C(=O)Nc1ccc(COC(=O)N2[C@@H]3CN4C5=C(C(=O)C(N)=C(C)C5=O)[C@H](COC(N)=O)[C@]4(OC)[C@@H]32)cc1 [Compound E1, 2-(2-methoxyethoxy) acetyl-L-Ala-L-Ala-L-Asn-4-amino benzyl mitomycin]
[1]; [14]
  Size of tumor (mm^3) Day 18: 237.60 ± 358.57 mm^3
  inhibitory rate on tumor % Day 18: 83.27%
[1]
  Effect together with PDL1-antibody in promoting immunization and treatment, in words: excellent synergistic effect
  Treatment effects on C57 mice, in words: greatly improved
[2]; 37° C., 1 mg/ml
  Activation ratio (%) in homogenates from different tumor tissues: 89.4%
[3]; 37° C., 1 mg/ml
  Activation ratio (%) in homogenates from different tumor tissues: 94.6%
[4]; 37° C., 1 mg/ml
  Activation ratio (%) in homogenates from different tumor tissues: 74.5%
[5]; 37° C., 1 mg/ml
  Activation ratio (%) in homogenates from different tumor tissues: 78.9%
[6]; 37° C., 1 mg/ml
  Activation ratio (%) in homogenates from different tumor tissues: 94.2%
[7]; 37° C., 1 mg/ml
  Activation ratio (%) in homogenates from different tumor tissues: 93.5%
[8]; 37° C., 1 mg/ml
  Activation ratio (%) in homogenates from different tumor tissues: 99.7%
[9]; 37° C., 1 mg/ml
  Activation ratio (%) in homogenates from different tumor tissues: 97.4%
[10]; 37° C., 1 mg/ml
  Activation ratio (%) in homogenates from different tumor tissues: 97.3%
[11]; ratio of CD8 positive cells in CD45 positive cells of tumor, flow cytometry, drugs 13.2 μmol/kg, PDL1 antibody 5 μg/kg
  CD8: CD45 (%): 18.4%

## CCCCCOC(=O)Nc1nc(=O)n([C@@H]2O[C@H](C)[C@@H](OC(=O)OCc3ccc(NC(=O)[C@H](CC(N)=O)NC(=O)[C@H](C)NC(=O)[C@H](C)NC(=O)CCCCCCC(=O)NO)cc3)[C@H]2O)cc1F [Compound S3, 4-N—(N—(N—(N-(8-(N-hydroxylamino)-1,8-octandioic acid-1-monoacyl)-L-alanyl)-L-alanyl)-L-asparaginyl)-amino benzyl alcohol-capecitabine-carbonic acid diester]
[1]; D121 immunized C57 mice, 13.2 μmol/kg weekly, PDL1 antibody 5 μg/kg where combined, Day 18
  Size of tumor (mm^3) Day 18: 425.67 ± 126.67 mm^3
[1]
  Treatment effects on C57 mice, in words: greatly improved
[2]; Human pancreatic cancer Panc-1 tumor tissue homogenate (30 μg/ml), 1 mg/ml compound
  Activation Efficiencies (%): 91.6%
[3]; Human liver cancer Hepg2 tumor tissue homogenate (30 μg/ml), 1 mg/ml compound
  Activation Efficiencies (%): 94.5%
[4]; Human chronic leukemia K562 tumor tissue homogenate (30 μg/ml), 1 mg/ml compound
  Activation Efficiencies (%): 93.2%
[5]; Human prostate cancer PC-3 tumor tissue homogenate (30 μg/ml), 1 mg/ml compound
  Activation Efficiencies (%): 98.3%
[6]; Human colon cancer HT-29 tumor tissue homogenate (30 μg/ml), 1 mg/ml compound
  Activation Efficiencies (%): 81.7%
[7]; Human ovarian cancer SK-OV-3 tumor tissue homogenate (30 μg/ml), 1 mg/ml compound
  Activation Efficiencies (%): 94.3%
[8]; Human renal cancer OS-RC-2 tumor tissue homogenate (30 μg/ml), 1 mg/ml compound
  Activation Efficiencies (%): 67.4%
[9]; Human non-small cell lung cancer A549 tumor tissue homogenate (30 μg/ml), 1 mg/ml compound
  Activation Efficiencies (%): 80.7%
[10]; Human breast cancer MDA-MB435 tumor tissue homogenate (30 μg/ml), 1 mg/ml compound
  Activation Efficiencies (%): 70.1%
[11]; D121 immunized C57 mice, 13.2 μmol/kg, ratio of CD8 positive cells in CD45 positive cells of tumor
  CD8: CD45 (%): 18.4%

## COCCOCCOCCOCCOCCOCC(=O)N[C@H](C)C(=O)N[C@H](C)C(=O)N[C@H](CC(N)=O)C(=O)Nc1ccc(COC(=O)OC(C(=O)OC2C[C@@]3(O)[C@@H](OC(=O)c4ccccc4)[C@H]4[C@](C)(C(=O)[C@H](OC(C)=O)C(=C2C)C3(C)C)[C@@H](O)CC2OC[C@]24OC(C)=O)[C@@H](NC(=O)c2ccccc2)c2ccccc2)cc1 (stereo partly shown) [S2′]
[1]; [15]
  Size of tumor (mm^3) Day 18: 331.57 ± 114.74 mm^3
  inhibitory rate on tumor % Day 18: 78.9%
[1]
  Treatment effects on C57 mice, in words: greatly improved
[2]; [16]
  Activation ratio (%) in homogenates from different tumor tissues: 93.8%
[3]; [16]
  Activation ratio (%) in homogenates from different tumor tissues: 84.6%
[4]; [16]
  Activation ratio (%) in homogenates from different tumor tissues: 73.3%
[5]; [16]
  Activation ratio (%) in homogenates from different tumor tissues: 98.4%
[6]; [16]
  Activation ratio (%) in homogenates from different tumor tissues: 89.9%
[7]; [16]
  Activation ratio (%) in homogenates from different tumor tissues: 84.6%
[8]; [16]
  Activation ratio (%) in homogenates from different tumor tissues: 91.5%
[9]; [16]
  Activation ratio (%) in homogenates from different tumor tissues: 89.4%
[10]; [16]
  Activation ratio (%) in homogenates from different tumor tissues: 91.4%
[11]; [17]
  CD8: CD45 (%): 18.1%

## COCCOCCOCCOCCOCCOCCOCCOCCOCCOCCOCCOCC(=O)N[C@H](C)C(=O)N[C@H](C)C(=O)N[C@H](CC(N)=O)C(=O)Nc1ccc(COC(=O)OC(C(=O)OC2C[C@@]3(O)[C@@H](OC(=O)c4ccccc4)[C@H]4[C@](C)(C(=O)[C@H](OC(C)=O)C(=C2C)C3(C)C)[C@@H](O)CC2OC[C@]24OC(C)=O)[C@@H](NC(=O)c2ccccc2)c2ccccc2)cc1 (stereo partly shown) [S3′]
[1]; [15]
  Size of tumor (mm^3) Day 18: 357.63 ± 194.54 mm^3
  inhibitory rate on tumor % Day 18: 77.3%
[1]
  Treatment effects on C57 mice, in words: greatly improved
[2]; [16]
  Activation ratio (%) in homogenates from different tumor tissues: 91.5%
[3]; [16]
  Activation ratio (%) in homogenates from different tumor tissues: 83.5%
[4]; [16]
  Activation ratio (%) in homogenates from different tumor tissues: 70.2%
[5]; [16]
  Activation ratio (%) in homogenates from different tumor tissues: 96.3%
[6]; [16]
  Activation ratio (%) in homogenates from different tumor tissues: 91.4%
[7]; [16]
  Activation ratio (%) in homogenates from different tumor tissues: 79.3%
[8]; [16]
  Activation ratio (%) in homogenates from different tumor tissues: 86.4%
[9]; [16]
  Activation ratio (%) in homogenates from different tumor tissues: 81.4%
[10]; [16]
  Activation ratio (%) in homogenates from different tumor tissues: 90.4%
[10]; human breast cancer (MDA-MB435) tumor tissue homogenates pH6.0, 100 μg, 1 mg/ml, control compounds vs S1′-S4′
  activation efficiency (%): 91.5%
[11]; [17]
  CD8: CD45 (%): 16.7%
